Results as given in paper PMC4488857 (PLoS ONE, 2015).

What was measured:
[1] = molecular target: T1, multidrug resistance-associated protein 2 (MRP2) (Homo sapiens, UniProt Q92887); assay: inhibition of ATP-dependent platinum uptake (oxaliplatin […]) in MRP2-expressing membrane vesicles, ICPMS; […] reduction at […]; type: cell-based; set-up: gene ABCC2; human MRP2 in inside-out Sf9 membrane vesicles
[2] = molecular target: T1, multidrug resistance-associated protein 2 (MRP2); assay: inhibition of ATP-dependent platinum uptake (oxaliplatin […]) in MRP2-expressing membrane vesicles, ICPMS; type: biochemical; set-up: gene ABCC2; human MRP2 in inside-out Sf9 membrane vesicles
[3] = molecular target: T1, multidrug resistance-associated protein 2 (MRP2); set-up: gene ABCC2

T1 sequence (Q92887 whole entry): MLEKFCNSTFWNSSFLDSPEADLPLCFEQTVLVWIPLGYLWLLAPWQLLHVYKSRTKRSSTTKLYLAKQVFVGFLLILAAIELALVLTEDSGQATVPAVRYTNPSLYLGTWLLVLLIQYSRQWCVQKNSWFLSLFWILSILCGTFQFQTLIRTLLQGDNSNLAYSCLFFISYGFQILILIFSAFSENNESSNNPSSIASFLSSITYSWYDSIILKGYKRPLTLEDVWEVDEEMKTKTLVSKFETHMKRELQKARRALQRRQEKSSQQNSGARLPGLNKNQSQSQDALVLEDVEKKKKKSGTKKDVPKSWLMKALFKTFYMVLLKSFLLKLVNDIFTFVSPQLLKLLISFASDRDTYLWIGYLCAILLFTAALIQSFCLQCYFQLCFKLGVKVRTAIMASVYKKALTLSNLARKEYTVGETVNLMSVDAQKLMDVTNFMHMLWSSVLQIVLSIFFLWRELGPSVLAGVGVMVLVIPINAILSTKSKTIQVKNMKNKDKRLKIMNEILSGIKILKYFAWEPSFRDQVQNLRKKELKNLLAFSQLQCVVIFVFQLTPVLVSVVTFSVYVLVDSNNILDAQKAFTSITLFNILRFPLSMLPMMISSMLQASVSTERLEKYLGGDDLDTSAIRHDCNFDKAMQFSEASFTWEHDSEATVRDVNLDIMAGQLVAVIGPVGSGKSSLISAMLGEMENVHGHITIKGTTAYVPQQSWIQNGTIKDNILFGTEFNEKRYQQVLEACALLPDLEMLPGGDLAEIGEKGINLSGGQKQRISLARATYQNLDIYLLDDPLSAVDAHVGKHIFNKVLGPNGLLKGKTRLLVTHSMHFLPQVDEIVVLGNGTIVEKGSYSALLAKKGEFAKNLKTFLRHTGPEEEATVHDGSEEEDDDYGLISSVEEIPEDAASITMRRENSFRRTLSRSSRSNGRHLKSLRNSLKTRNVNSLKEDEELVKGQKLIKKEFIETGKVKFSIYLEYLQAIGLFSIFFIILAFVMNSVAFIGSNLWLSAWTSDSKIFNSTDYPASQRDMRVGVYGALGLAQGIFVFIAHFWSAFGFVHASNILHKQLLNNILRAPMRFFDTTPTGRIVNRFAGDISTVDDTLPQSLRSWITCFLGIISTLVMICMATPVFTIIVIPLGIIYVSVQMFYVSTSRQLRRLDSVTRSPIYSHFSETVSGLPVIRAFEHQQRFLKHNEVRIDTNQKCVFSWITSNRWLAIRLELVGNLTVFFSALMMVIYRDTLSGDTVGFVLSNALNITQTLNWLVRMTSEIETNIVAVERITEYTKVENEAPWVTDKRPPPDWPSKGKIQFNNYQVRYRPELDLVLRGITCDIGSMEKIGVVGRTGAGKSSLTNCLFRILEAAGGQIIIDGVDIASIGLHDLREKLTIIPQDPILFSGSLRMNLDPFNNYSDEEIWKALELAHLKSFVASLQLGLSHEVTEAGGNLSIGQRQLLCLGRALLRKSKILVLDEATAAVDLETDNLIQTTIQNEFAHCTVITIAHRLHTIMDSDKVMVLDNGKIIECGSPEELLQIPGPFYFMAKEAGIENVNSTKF

SMILES: CN(C)C(=O)CCSC(SCCC(=O)O)c1cccc(/C=C/c2ccc3ccc(Cl)cc3n2)c1 (stereo not drawn) [MK571]
- inhibition at 100 µM [1]: 96%

SMILES: O=c1c(O)c(-c2cc(O)c(O)c(O)c2)oc2cc(O)cc(O)c12 [myricetin]
- IC50 [2]: 10 to 100 µM

SMILES: O=C1[O][Pt]2([NH][C@@H]3CCCC[C@H]3[NH]2)[O]C1=O [oxaliplatin]
- Km [3]: 301 µM
